From the NIST ThermoML archive (doi:10.1016/j.jct.2015.07.014)

Test: xn = mol fraction of the nth substance listed
Conditions: Fluid (supercritical or subcritical phases), Buoyancy - hydrostatic balance with magnetic suspension - one sinker

[Ar] [argon] + O=C=O
Conditions | mass density [kg/m3]
298.12 K, 30871 kPa, x1 = 0.99 | 502.471
298.17 K, 30944 kPa, x1 = 0.95 | 514.698
298.18 K, 28957 kPa, x1 = 0.99 | 476.725
298.19 K, 10975 kPa, x1 = 0.99 | 187.045
298.19 K, 12973 kPa, x1 = 0.99 | 222.038
298.19 K, 14969 kPa, x1 = 0.99 | 256.759
298.19 K, 16969 kPa, x1 = 0.99 | 291.075
298.19 K, 18969 kPa, x1 = 0.99 | 324.674
298.19 K, 26962 kPa, x1 = 0.99 | 448.747
298.2 K, 20967 kPa, x1 = 0.99 | 357.351
298.2 K, 22966 kPa, x1 = 0.99 | 389.003
298.2 K, 24964 kPa, x1 = 0.99 | 419.491
298.22 K, 10976 kPa, x1 = 0.95 | 190.182
298.23 K, 12976 kPa, x1 = 0.95 | 226.201
298.23 K, 14974 kPa, x1 = 0.95 | 261.987
298.23 K, 16969 kPa, x1 = 0.95 | 297.274
298.23 K, 18970 kPa, x1 = 0.95 | 331.923
298.23 K, 20969 kPa, x1 = 0.95 | 365.576
298.23 K, 22968 kPa, x1 = 0.95 | 398.09
298.23 K, 24967 kPa, x1 = 0.95 | 429.349
298.23 K, 26965 kPa, x1 = 0.95 | 459.226
298.23 K, 28963 kPa, x1 = 0.95 | 487.701
323.2 K, 10978 kPa, x1 = 0.99 | 168.714
323.2 K, 24965 kPa, x1 = 0.99 | 375.34
323.2 K, 30955 kPa, x1 = 0.99 | 452.317
323.21 K, 14970 kPa, x1 = 0.99 | 230.302
323.21 K, 16971 kPa, x1 = 0.99 | 260.652
323.21 K, 18969 kPa, x1 = 0.99 | 290.39
323.21 K, 20969 kPa, x1 = 0.99 | 319.49
323.21 K, 22966 kPa, x1 = 0.99 | 347.807
323.21 K, 26962 kPa, x1 = 0.99 | 401.924
323.21 K, 28960 kPa, x1 = 0.99 | 427.589
323.22 K, 12973 kPa, x1 = 0.99 | 199.627
323.24 K, 24968 kPa, x1 = 0.95 | 382.594
323.24 K, 30958 kPa, x1 = 0.95 | 460.997
323.25 K, 16970 kPa, x1 = 0.95 | 265.1
323.25 K, 22969 kPa, x1 = 0.95 | 354.46
323.25 K, 28963 kPa, x1 = 0.95 | 435.856
323.26 K, 10976 kPa, x1 = 0.95 | 170.993
323.26 K, 12974 kPa, x1 = 0.95 | 202.641
323.26 K, 14973 kPa, x1 = 0.95 | 234.077
323.27 K, 18969 kPa, x1 = 0.95 | 295.579
323.27 K, 20973 kPa, x1 = 0.95 | 325.456
323.27 K, 26965 kPa, x1 = 0.95 | 409.68
348.21 K, 14972 kPa, x1 = 0.99 | 209.619
348.21 K, 16970 kPa, x1 = 0.99 | 236.897
348.21 K, 18972 kPa, x1 = 0.99 | 263.764
348.22 K, 20972 kPa, x1 = 0.99 | 290.057
348.22 K, 30956 kPa, x1 = 0.99 | 411.615
348.23 K, 28960 kPa, x1 = 0.99 | 388.704
348.24 K, 26963 kPa, x1 = 0.99 | 365.062
348.25 K, 10977 kPa, x1 = 0.99 | 154.064
348.25 K, 12974 kPa, x1 = 0.99 | 181.967
348.25 K, 24966 kPa, x1 = 0.99 | 340.708
348.25 K, 30958 kPa, x1 = 0.95 | 418.385
348.26 K, 22968 kPa, x1 = 0.99 | 315.675
348.28 K, 18972 kPa, x1 = 0.95 | 267.685
348.28 K, 20972 kPa, x1 = 0.95 | 294.53
348.28 K, 28962 kPa, x1 = 0.95 | 395.094
348.29 K, 22970 kPa, x1 = 0.95 | 320.729
348.29 K, 26966 kPa, x1 = 0.95 | 371.043
348.3 K, 10979 kPa, x1 = 0.95 | 155.9
348.3 K, 12976 kPa, x1 = 0.95 | 184.3
348.3 K, 14972 kPa, x1 = 0.95 | 212.437
348.3 K, 16971 kPa, x1 = 0.95 | 240.266
348.31 K, 24969 kPa, x1 = 0.95 | 346.237
373.22 K, 16970 kPa, x1 = 0.99 | 217.712
373.22 K, 18968 kPa, x1 = 0.99 | 242.204
373.22 K, 30957 kPa, x1 = 0.99 | 378.472
373.23 K, 22970 kPa, x1 = 0.99 | 289.853
373.23 K, 24965 kPa, x1 = 0.99 | 312.835
373.23 K, 26964 kPa, x1 = 0.99 | 335.305
373.24 K, 10977 kPa, x1 = 0.95 | 143.58
373.24 K, 14972 kPa, x1 = 0.99 | 192.822
373.24 K, 20969 kPa, x1 = 0.99 | 266.255
373.24 K, 28960 kPa, x1 = 0.99 | 357.169
373.25 K, 10978 kPa, x1 = 0.99 | 142.11
373.25 K, 12977 kPa, x1 = 0.99 | 167.627
373.28 K, 18969 kPa, x1 = 0.95 | 245.312
373.29 K, 16972 kPa, x1 = 0.95 | 220.418
373.29 K, 28963 kPa, x1 = 0.95 | 362.242
373.29 K, 30959 kPa, x1 = 0.95 | 383.847
373.3 K, 12975 kPa, x1 = 0.95 | 169.447
373.31 K, 14971 kPa, x1 = 0.95 | 195.043
373.31 K, 20969 kPa, x1 = 0.95 | 269.779
373.31 K, 26966 kPa, x1 = 0.95 | 340.003
373.32 K, 22966 kPa, x1 = 0.95 | 293.716
373.32 K, 24968 kPa, x1 = 0.95 | 317.167
398.26 K, 12977 kPa, x1 = 0.99 | 155.613
398.28 K, 10979 kPa, x1 = 0.99 | 132.065
398.28 K, 20968 kPa, x1 = 0.99 | 246.59
398.28 K, 30957 kPa, x1 = 0.99 | 350.842
398.29 K, 26962 kPa, x1 = 0.99 | 310.557
398.29 K, 28962 kPa, x1 = 0.99 | 330.96
398.3 K, 14970 kPa, x1 = 0.99 | 178.803
398.3 K, 18971 kPa, x1 = 0.99 | 224.388
398.3 K, 22969 kPa, x1 = 0.99 | 268.392
398.3 K, 24967 kPa, x1 = 0.99 | 289.714
398.31 K, 16969 kPa, x1 = 0.99 | 201.75
398.31 K, 26966 kPa, x1 = 0.95 | 314.455
398.31 K, 28963 kPa, x1 = 0.95 | 335.112
398.33 K, 14977 kPa, x1 = 0.95 | 180.735
398.33 K, 24965 kPa, x1 = 0.95 | 293.233
398.33 K, 30959 kPa, x1 = 0.95 | 355.238
398.34 K, 22971 kPa, x1 = 0.95 | 271.617
398.35 K, 18973 kPa, x1 = 0.95 | 226.932
398.35 K, 20972 kPa, x1 = 0.95 | 249.488
398.36 K, 12973 kPa, x1 = 0.95 | 157.068
398.36 K, 16970 kPa, x1 = 0.95 | 203.95
398.37 K, 10980 kPa, x1 = 0.95 | 133.275
423.22 K, 10980 kPa, x1 = 0.99 | 123.515
423.22 K, 16967 kPa, x1 = 0.99 | 188.325
423.23 K, 14969 kPa, x1 = 0.99 | 166.982
423.24 K, 12971 kPa, x1 = 0.99 | 145.339
423.28 K, 18967 kPa, x1 = 0.99 | 209.329
423.3 K, 20973 kPa, x1 = 0.99 | 230.071
423.3 K, 22965 kPa, x1 = 0.99 | 250.298
423.3 K, 30956 kPa, x1 = 0.99 | 327.48
423.31 K, 12974 kPa, x1 = 0.95 | 146.65
423.32 K, 24968 kPa, x1 = 0.95 | 273.195
423.33 K, 10981 kPa, x1 = 0.95 | 124.535
423.33 K, 14975 kPa, x1 = 0.95 | 168.571
423.33 K, 24964 kPa, x1 = 0.99 | 270.201
423.33 K, 26968 kPa, x1 = 0.95 | 292.962
423.33 K, 28959 kPa, x1 = 0.99 | 308.785
423.34 K, 18970 kPa, x1 = 0.95 | 211.466
423.34 K, 26961 kPa, x1 = 0.99 | 289.685
423.34 K, 28966 kPa, x1 = 0.95 | 312.296
423.35 K, 16970 kPa, x1 = 0.95 | 190.146
423.35 K, 20971 kPa, x1 = 0.95 | 232.422
423.35 K, 30960 kPa, x1 = 0.95 | 331.165
423.36 K, 22968 kPa, x1 = 0.95 | 252.983
